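All cell lines were grown in 96-well plates and treated with compound for 48 hours. GI50 is the concentration that inhibits growth by half.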 The source made the active and inactive calls. No stated cut-off is given here; in the data, active = GI50 up to about 1.1 µM and inactive = higher.

The values that follow come from ChEMBL document CHEMBL1201862, “PubChem BioAssay data set” (2004).

Among the test systems are SK-MEL-5; MDA-MB-231; TK-10; CAKI-1; NCI-H460; OVCAR-5; NCI-H522; M14; OVCAR-4; SF-295; ACHN; SNB-75; NCI/ADR-RES; HL-60; HCT-116; NCI-H226; SF-268; OVCAR-8; SF-539; HT-29.
What all share (test): NCI-60 cell line screen, 48 h

As for `CC(C)(C)OC(=O)NC(Cc1ccc([N+](=O)[O-])cc1)C(=O)NC(CCCCNC(=O)OCc1ccccc1)C(=O)ON1C(=O)CCC1=O` (centres undefined), the GI50 with SK-MEL-5 was > 100 µM (inactive); in the assay with MDA-MB-231, 43.8 µM (inactive); in the assay on TK-10 it was > 100 µM (inactive); with CAKI-1, > 100 µM (inactive); in the assay on NCI-H460, > 100 µM (inactive); in the assay on OVCAR-5 it was > 100 µM (inactive). For the same compound, the GI50 with NCI-H522 was > 100 µM (inactive); in the assay with M14, 70.3 µM (inactive); in the assay on OVCAR-4 it was > 100 µM (inactive); in the assay on SF-295 it was 40 µM (inactive); with ACHN, > 100 µM (inactive); in the assay on SNB-75 it was > 100 µM (inactive). In addition, the GI50 in the assay on NCI/ADR-RES is > 100 µM (inactive); with HL-60, 78.3 µM (inactive); in the assay on HCT-116 it was 73.5 µM (inactive); in the assay with NCI-H226 it was > 100 µM (inactive); in the assay on SF-268 it was 44.2 µM (inactive); in the assay with OVCAR-8, > 100 µM (inactive). The GI50 in the assay on SF-539 and with HT-29 was > 100 µM (inactive) in each case.
As for `COc1ccc2nc3cccc([N+](=O)[O-])c3c(NCCO)c2c1`, the GI50 was 0.0188 µM (active) in the assay with SK-MEL-5; 0.0138 µM (active) in the assay with MDA-MB-231; 0.0336 µM (active) in the assay on TK-10; 0.0183 µM (active) in the assay with CAKI-1; 0.00378 µM (active) with NCI-H460; 0.0203 µM (active) in the assay with OVCAR-5. The GI50 in the assay on NCI-H522 is 0.017 µM (active); in the assay with M14, 0.00762 µM (active); with OVCAR-4, 0.0386 µM (active); with SF-295 it was 0.0684 µM (active); in the assay on ACHN, 0.0105 µM (active); with SNB-75, 0.0942 µM (active). In addition, the GI50 is 0.0182 µM (active) in the assay with NCI/ADR-RES; 0.0148 µM (active) with HL-60; 0.00178 µM (active) with HCT-116; 0.0378 µM (active) in the assay with NCI-H226; 0.0157 µM (active) with SF-268; 0.0083 µM (active) in the assay with OVCAR-8. The results for the GI50 with SF-539 and in the assay with HT-29 were 0.0182 µM (active) and 0.00615 µM (active), respectively.
On to `CC(C)=CC[S+]([O-])c1ccccc1NC1=CC(=O)CC(C)(C)C1` (centres undefined), for which the GI50 in the assay with SK-MEL-5, in the assay with MDA-MB-231, in the assay with TK-10, in the assay with CAKI-1, in the assay on NCI-H460 and in the assay on OVCAR-5 was > 100 µM (inactive) in each case. For the same compound, the GI50 with NCI-H522, with M14, with OVCAR-4, in the assay on ACHN, in the assay with SNB-75 and in the assay with NCI/ADR-RES was > 100 µM (inactive) throughout. Further, the GI50 in the assay on HL-60, in the assay with HCT-116, in the assay with NCI-H226, in the assay with SF-268, in the assay with OVCAR-8 and with SF-539 was > 100 µM (inactive) in each case. Further, the GI50 with HT-29 was > 100 µM (inactive).
As for `O=C1NC2(CCNCC2)Oc2ccccc21`, the GI50 with SK-MEL-5, in the assay on MDA-MB-231, in the assay on TK-10, in the assay on CAKI-1, in the assay with NCI-H460 and in the assay with OVCAR-5 was > 100 µM (inactive) in each case. Also, the GI50 with NCI-H522, in the assay on M14, in the assay on OVCAR-4, with SF-295, with ACHN and in the assay with SNB-75 was > 100 µM (inactive) throughout. Besides, the GI50 with NCI/ADR-RES, with HL-60, in the assay with HCT-116, in the assay on NCI-H226, in the assay on SF-268 and with OVCAR-8 was > 100 µM (inactive) each time. The GI50 in the assay on SF-539 and with HT-29 was > 100 µM (inactive) each time.
Take `CC1=CC(=O)c2ccc(C)cc2C1=O` [CHIMAPHILIN]: the GI50 with SK-MEL-5 was 3.82 µM (inactive); in the assay on MDA-MB-231, 11.6 µM (inactive); with TK-10, 19 µM (inactive); in the assay with CAKI-1 it was 5.78 µM (inactive); in the assay on NCI-H460 it was 14.2 µM (inactive); in the assay with OVCAR-5, 19.9 µM (inactive). Also, the GI50 in the assay on NCI-H522 is 4.09 µM (inactive); in the assay on M14, 16.3 µM (inactive); in the assay on OVCAR-4, 16.7 µM (inactive); in the assay with SF-295, 17.2 µM (inactive); with ACHN, 7.45 µM (inactive); with SNB-75, > 10 µM (inactive). Also, the GI50 was 10.4 µM (inactive) in the assay with NCI/ADR-RES; 1.98 µM (inactive) in the assay on HL-60; 4.44 µM (inactive) with HCT-116; 13.8 µM (inactive) with NCI-H226; 14.3 µM (inactive) with SF-268; 10.6 µM (inactive) in the assay with OVCAR-8. Further, the results for the GI50 in the assay on SF-539 and in the assay on HT-29 were 15.6 µM (inactive) and 38.6 µM (inactive), respectively.
As to `C[n+]1ccn2c3nc4ccccc4nc3c([O-])c(C#N)c21`, the GI50 is > 4.65 µM (inactive) with SK-MEL-5; > 100 µM (inactive) in the assay on MDA-MB-231; > 10 µM (inactive) in the assay with TK-10; > 100 µM (inactive) in the assay with CAKI-1; > 10 µM (inactive) with NCI-H460; > 10 µM (inactive) with OVCAR-5. For the same compound, the GI50 is > 10 µM (inactive) in the assay on NCI-H522; > 100 µM (inactive) with M14; > 100 µM (inactive) with OVCAR-4; > 100 µM (inactive) in the assay with SF-295; > 100 µM (inactive) in the assay on ACHN; > 100 µM (inactive) in the assay on SNB-75. Also, the GI50 in the assay with NCI/ADR-RES was > 34.2 µM (inactive); in the assay on HL-60, > 100 µM (inactive); in the assay on HCT-116 it was > 100 µM (inactive); in the assay with NCI-H226 it was > 100 µM (inactive); in the assay with SF-268, > 100 µM (inactive); with OVCAR-8 it was > 56.6 µM (inactive). For the same compound, the GI50 in the assay with SF-539 and with HT-29 was > 100 µM (inactive) throughout.
For the compound `CC(=O)N(C(C)=O)n1c(Cc2ccc(C)cc2)nn(C(C)=O)c1=O`, the GI50 in the assay with SK-MEL-5, in the assay with MDA-MB-231, in the assay on TK-10, in the assay with CAKI-1, in the assay with NCI-H460 and in the assay with OVCAR-5 was > 100 µM (inactive) each time. For the same compound, the GI50 in the assay with NCI-H522, in the assay on M14, in the assay on OVCAR-4, in the assay on SF-295, in the assay on ACHN and in the assay with SNB-75 was > 100 µM (inactive) in each case. The GI50 in the assay on NCI/ADR-RES, in the assay with HL-60, with HCT-116, in the assay with NCI-H226, in the assay with SF-268 and in the assay with OVCAR-8 was > 100 µM (inactive) throughout. Besides, the GI50 in the assay with SF-539 and with HT-29 was > 100 µM (inactive) throughout.
Consider `CC1OC(O)CC(N(C)C)C1O.CC1OC(O)CCC1O.CCC1CC(O)c2c(O)c3c(c(O)c2C1O)C(=O)c1cccc(O)c1C3=O` (centres undefined), for which the GI50 in the assay with SK-MEL-5 was 0.0177 µM (active); in the assay on MDA-MB-231 it was 0.0275 µM (active); in the assay on TK-10 it was 0.0208 µM (active); in the assay with CAKI-1 it was 0.0156 µM (active); with NCI-H460, 0.00486 µM (active); with OVCAR-5, 0.0375 µM (active). Moreover, the GI50 in the assay on NCI-H522 was 0.0121 µM (active); in the assay on M14 it was 0.0188 µM (active); in the assay with OVCAR-4, 0.0203 µM (active); with SF-295 it was 0.0323 µM (active); in the assay with ACHN, 0.0159 µM (active); in the assay on SNB-75, 0.0136 µM (active). In addition, the GI50 with NCI/ADR-RES was 0.251 µM (active); in the assay on HL-60, 0.0305 µM (active); in the assay with HCT-116, 0.00771 µM (active); in the assay on NCI-H226 it was 0.0168 µM (active); in the assay with SF-268, 0.0335 µM (active); in the assay on OVCAR-8, 0.0211 µM (active). For the same compound, the GI50 with SF-539 is 0.0373 µM (active); in the assay with HT-29, 0.0126 µM (active).
For the compound `CCOC(=O)c1ccc(/N=C2\SC(=S)N(c3ccc(F)cc3)\C2=N/c2ccc(C(=O)OCC)cc2)cc1`, the GI50 with SK-MEL-5 is 10.5 µM (inactive); in the assay on MDA-MB-231, 7.8 µM (inactive); with TK-10, 18.9 µM (inactive); with CAKI-1, 21.9 µM (inactive); with NCI-H460 it was 51.9 µM (inactive); with OVCAR-5 it was 23 µM (inactive). Also, the GI50 was 5.97 µM (inactive) with NCI-H522; 6.75 µM (inactive) in the assay with M14; 12.1 µM (inactive) with OVCAR-4; 48.3 µM (inactive) in the assay on SF-295; 13.6 µM (inactive) in the assay on ACHN; 20.2 µM (inactive) in the assay with SNB-75. Besides, the GI50 in the assay with NCI/ADR-RES was 17 µM (inactive); in the assay on HL-60 it was 5.78 µM (inactive); in the assay on HCT-116 it was 14.2 µM (inactive); in the assay on NCI-H226, 21.8 µM (inactive); in the assay on SF-268, 7.4 µM (inactive); in the assay with OVCAR-8, 7.53 µM (inactive). Besides, the GI50 in the assay with SF-539 is 20 µM (inactive); in the assay on HT-29, 30.5 µM (inactive).
On to `Cc1ccc(C)c(C2NC(=O)c3ccccc3N2)c1` (centres undefined), for which the GI50 is 0.335 µM (active) with SK-MEL-5; 10.3 µM (inactive) in the assay on MDA-MB-231; 6.82 µM (inactive) with TK-10; 3.27 µM (inactive) in the assay with CAKI-1; 0.916 µM (active) in the assay on NCI-H460; 6.18 µM (inactive) with OVCAR-5. Also, the GI50 is 0.689 µM (active) with NCI-H522; 0.719 µM (active) in the assay with M14; 6.27 µM (inactive) with OVCAR-4; 1.12 µM (inactive) in the assay on SF-295; 4.83 µM (inactive) in the assay on ACHN; 0.423 µM (active) in the assay with SNB-75. The GI50 is 0.7 µM (active) in the assay on NCI/ADR-RES; 0.118 µM (active) in the assay with HL-60; 0.601 µM (active) with HCT-116; 2.95 µM (inactive) in the assay on NCI-H226; 3.27 µM (inactive) in the assay on SF-268; 4.31 µM (inactive) in the assay on OVCAR-8. For the same compound, the GI50 in the assay on SF-539 is 0.587 µM (active); in the assay on HT-29 it was 0.445 µM (active).
